Laboratory results as given in US5260271A, “Nisin compositions for use as enhanced broad range bactericides” (Applied Microbiology, Inc., priority 1992, dated 1993).
Where no end group is shown, it is not given here.

What was measured:
S. typhimurium = assay: Bactericidal activity, percent bacterial survival of S. typhimurium suspension; format: cell-based, Salmonella typhimurium; settings: for Percentage S. typhimurium Survival at 3 hours / % Survival at 2 hours: EDTA 0 mM
Description: (§1) All tests in the following examples were performed at 37° C. The efficacy of the enhanced broad range bactericides was determined by assaying bactericidal activity as measured by the percent bacterial survival after treatment with the bactericide. Generally, after incubation of a 10^7 cell per ml suspension of target species with the novel bactericide for specified lengths of time, bacteria were collected by centrifugation for 2 minutes. […] Surviving bacteria were determined by scoring colony forming units (CFU) after incubation for 24-48 hours at 37° C.
The control (Test #1) is identical to the control of Example 1 (Table 1).

E. coli = assay: Bactericidal activity, percent bacterial survival of E. coli suspension; format: cell-based, Escherichia coli; settings: EDTA 0 mM, Triton X-100 0%, 20 mM Tris pH 8.0
Description: as §1
The effects of the bactericide were measured as a function of percentage bacteria survival after 2 hours.
Incubations were performed in 20 mM Tris, […] at 37° C.

K. pneumoniae = assay: Bactericidal activity, percent bacterial survival of K. pneumoniae suspension; format: cell-based, Klebsiella pneumoniae; settings: EDTA 0 mM, 20 mM Tris pH 8.0
Description: as §1
The effect was measured as a function of percentage bacterial survival after 2 hours.

[1] = tested on: S. typhimurium on chicken muscle; assay: Bactericidal activity towards S. typhimurium on chicken muscle (unadhered cells); format: cell-based, Salmonella typhimurium; settings: chicken muscle, EDTA 0 mM
Description: Incubations were performed in either 50 mM sodium acetate, pH 5.0, or 20 mM Tris, pH 8.0 at 37° C.
Cubes of chicken muscle were cleansed with sodium hypochlorite and povidone iodine prior to use. To inoculate the tissue, the cubes of chicken muscle were dipped into a 10^8 cells/ml suspension of S. typhimurium in 20 mM Tris HCl, pH 8.0. Excess moisture was removed from dipped cubes by tapping. The chicken samples were placed into sufficient buffer containing the nisin composition to cover the tissue and incubated for 2 hours at 37° C. after which the tissue was removed to sufficient Phage buffer to cover the tissue. The bacteria remaining in the test solution were collected by centrifugation, washed with Phage buffer, and combined with bacteria washed from the tissue by Phage buffer. The combined samples (termed "unadhered" cells) were serially diluted and 100 μl aliquots were plated for determination of surviving bacteria.
(§2) Cubes of chicken muscle were cleansed with sodium hypochlorite and povidone iodine prior to use. To inoculate the tissue, the cubes of chicken muscle were dipped into a 10^8 cells/ml suspension of S. typhimurium in 20 mM Tris HCl, pH 8.0. Excess moisture was removed from dipped cubes by tapping. The tissue was placed into sufficient buffer containing the nisin compositions to cover the tissue, and incubated for 2 hours at 37° C. after which the tissue was removed to sufficient Phage buffer to cover the tissue. The bacteria remaining in the test solution were collected by centrifugation, washed with Phage buffer, and combined with bacteria washed from the tissue by Phage buffer. The combined samples (termed "unadhered" cells) were serially diluted and 100 μl aliquots were plated for determination of surviving bacteria.
as §2, with “cleaned” for “cleansed”, “50” for “20”, “sodium acetate buffer,” for “Tris HCl,”, “5.0.” for “8.0.”, “containing” for “containing the”

Staphylococcus aureus = assay: Bactericidal activity towards Staphylococcus aureus, percent survival; format: cell-based; settings: S. aureus, EDTA 0 mM
Description: (§3) All tests in the following examples were performed at 37° C. The efficacy of the enhanced broad range bactericides was determined by assaying bactericidal activity as measured by the percent bacterial survival after treatment with the bactericide. Generally, after incubation of a 10^7 cell per ml suspension of target species with the novel bactericide for specified lengths of time, bacteria were collected by centrifugation for 2 minutes. […] Surviving bacteria were determined by scoring colony forming units (CFU) after incubation for 24-48 hours at 37° C. An effective bactericide according to this invention is one which allows less than 0.1% of the initial viable count of the bacteria to survive.
Incubations were performed in 50 mM sodium acetate buffer, pH 5.0 or 20 m
TrisHCl buffer, pH 8.0 at 37° C.

Streptococcus mutans [2] = assay: Bactericidal activity and kinetics towards Streptococcus mutans in Tris buffer; format: cell-based; settings: S. mutans; pH 8.0, Nisin 0.1 μg/ml, EDTA 0 mM
Description: (§6) All tests in the following examples were performed at 37° C. The efficacy of the enhanced broad range bactericides was determined by assaying bactericidal activity as measured by the percent bacterial survival after treatment with the bactericide. Generally, after incubation of a 10^7 cell per ml suspension of target species with the novel bactericide for specified lengths of time, bacteria were collected by centrifugation for 2 minutes. The bacterial pellet was washed free of the bactericide with a rescue buffer, termed herein Phage buffer (50mM Tris-HCl buffer pH 7.8, 1 mM MgSO4, 4 mM CaCl2, 0.1 M Nacl, and 0.1% gelatin), resuspended and serially diluted into Phage buffer, and 100 μl of the suspended bacteria were spread on nutrient agar plates. Surviving bacteria were determined by scoring colony forming units (CFU) after incubation for 24-48 hours at 37° C.
The suspensions were incubated for various times ranging from 0.5 to 60 minutes with the bactericides.
Incubations were performed in 20 mM TrisHCl, pH 7.3 at 37° C.

Listeria monocytogenes [3] = assay: Bactericidal activity towards Listeria monocytogenes in Tris buffer; format: cell-based; settings: L. monocytogenes; pH 8.0, Nisin 3.0 μg/ml, EDTA 0 mM
Description: as §3
(§4) Incubations were performed in 20 mM TrisHCl, pH 8.0 at 37° C.

Coryneform bacteria = assay: Bactericidal activity towards Coryneform bacteria; format: cell-based; settings: pH 8.0, Nisin 3 μg/ml, EDTA 0 mM
Description: as §3, §4

Streptococcus agalactiae = assay: Bactericidal activity towards Streptococcus agalactiae in milk; format: cell-based; settings: for % survival at 2h: S. agalactiae in milk at 37° C., Monolaurin 0%
Description: as §3
However, the combination of the two agents, 0.1% monolaurin and nisin 0.2 μg/ml, is extremely potent towards S. agalactiae. […] Thus, when the application of nisin is limited by its available activity, a bactericide comprising nisin with a surfactant can be expected to be more useful.
(§5) Incubations were in milk at 37° C.

Listeria monocytogenes [4] = assay: Bactericidal activity towards Listeria monocytogenes in milk; format: cell-based; settings: L. monocytogenes in milk at 37° C.; Nisin 100 μg/ml, Monooleate 0%
Description: as §3
An example of where the application of nisin is limited by its available activity is illustrated by the data in Table 15B.
as §5

Streptococcus mutans [5] = assay: Rapid bactericidal activity towards Streptococcus mutans in the presence of divalent cation, 10% Fetal Calf Serum; format: cell-based; settings: S. mutans, Nisin 3, no EDTA, 0 mM
Description: as §6
Incubations performed in 10% Fetal Calf Serum at 37° C.

## Nisin (ITSISLCTPGCKTGALMGCNMKTATCHCSIHVSK; not fully specified (residues 2, 5, 33, bridges); cysteine pairing not given here; UniProt P13068 24-57, looked up) [polypeptide bacteriocin with antimicrobial properties produced by strains of Streptococcus lactis; known food preservative]
S. typhimurium; Nisin 50 µg/ml, 20 mM Tris pH 8.0, 37° C
  Percentage S. typhimurium Survival at 3 hours: 7.0%
S. typhimurium; Nisin 100 µg/ml, 20 mM Tris pH 8.0, 37° C
  Percentage S. typhimurium Survival at 3 hours: 1.6%
S. typhimurium; Nisin […], 20 mM Tris pH 8.0, 37° C
  Percentage S. typhimurium Survival at 3 hours: 51.3%
S. typhimurium; S. typhimurium, 100 μg/ml nisin in the absence of EDTA, 20 mM Tris pH 8.0
  survival: 1.6%
S. typhimurium; S. typhimurium, pH 5.0, Nisin 100 μg/ml
  % Survival at 2 hours: 0.6%
S. typhimurium; S. typhimurium, pH 8.0, Nisin 100 μg/ml
  % Survival at 2 hours: 4%
S. typhimurium; Table 2: Nisin 10 μg/ml, Triton X-100 0%, 20 mM Tris pH 8.0
  Percentage S. typhimurium Survival at 3 hours: 51.3%
S. typhimurium; Table 2: Nisin 50 μg/ml, Triton X-100 0%, 20 mM Tris pH 8.0
  Percentage S. typhimurium Survival at 3 hours: 7.0%
S. typhimurium; Table 2: Nisin 100 μg/ml, Triton X-100 0%, 20 mM Tris pH 8.0
  Percentage S. typhimurium Survival at 3 hours: 1.6%
S. typhimurium; Table 3: Nisin 10 μg/ml, Tween20 0%, 20 mM Tris pH 8.0
  Percentage S. typhimurium Survival at 3 hours: 51.3%
S. typhimurium; Table 3: Nisin 50 μg/ml, Tween20 0%, 20 mM Tris pH 8.0
  Percentage S. typhimurium Survival at 3 hours: 7.0%
S. typhimurium; Table 3: Nisin 100 μg/ml, Tween20 0%, 20 mM Tris pH 8.0
  Percentage S. typhimurium Survival at 3 hours: 1.6%
S. typhimurium; Table 8, S. typhimurium, Nisin 100 μg/ml, BSA 0%, Tris buffer
  % Survival at 2 hours: 1.6%
E. coli; Nisin 30 μg/ml
  Percentage E. coli Survival at 2 hours: 27%
E. coli; Nisin 100 μg/ml
  Percentage E. coli Survival at 2 hours: 25%
E. coli; Nisin 300 μg/ml
  Percentage E. coli Survival at 2 hours: 8.5%
K. pneumoniae; Nisin 100 μg/ml
  % Survival at 2 hours: 50%
K. pneumoniae; Nisin 300 μg/ml
  % Survival at 2 hours: 38%
[1]; pH 5.0, Nisin 300 μg/ml
  % Survival at 2 hours (Unadhered cells): 0.1%
[1]; pH 8.0, Nisin 300 μg/ml, 1% Bovine serum albumin
  % Survival at 2 hours (Unadhered cells): 0.02%
[1]; pH 8.0, Nisin 300 μg/ml
  % Survival at 2 hours (Unadhered cells): 7.5%
Staphylococcus aureus; pH 5.0, Nisin 3.0 μg/ml
  % Survival 2 hr: 0.6%
Staphylococcus aureus; pH 8.0, Nisin 3.0 μg/ml
  % Survival 2 hr: 7.4%
Streptococcus mutans [2]
  % Survival after 2 hr: 4.3%
Listeria monocytogenes [3]
  % Survival after 2 hr: 0.71%
Coryneform bacteria
  % Survival 2 hr: 0.22%
Streptococcus agalactiae; Nisin 0.02 μg/ml
  % survival at 2h: 100%
Streptococcus agalactiae; Nisin 0.2 μg/ml
  % survival at 2h: 2.2%
Streptococcus agalactiae; nisin at concentrations up to 0.2 μg/ml, in milk
  bactericidal activity towards Streptococcus agalactiae: does not exhibit significant bactericidal activity
Listeria monocytogenes [4]
  % Survival 2 hr: 0.56%
Streptococcus mutans [5]
  % survival at 1 min.: 2.9%
